“And” between values parts separate entries of the source, which are not always exact repeats. Equal values may be shown once. Records with an inconclusive call do not appear.
System: BDF1 mice, colon carcinoma 38 sc, T/C %
Assay: NCI In Vivo Anticancer Drug Screen. Data for tumor model Colon Carcinoma 38 (subcutaneous) in B6D2F1 (BDF1) mice
Conditions: endpoint: median tumor weight (est.), higher = larger tumour
Method in brief: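 Transplantable tumor in mice; compound-treated vs vehicle-dosed controls. Measured survival or tumor size; value = T ÷ C.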

[1] = dose: 12.5 mg/kg/injection, schedule: Q07DX002 (ip), vehicle: Klucel (hydroxypropylcellulose) (HPC)
[2] = dose: 25.0 mg/kg/injection, schedule: Q07DX002 (ip), vehicle: Klucel (hydroxypropylcellulose) (HPC)
[3] = dose: 50.0 mg/kg/injection, schedule: Q07DX002 (ip), vehicle: Klucel (hydroxypropylcellulose) (HPC)
[4] = dose: 100.0 mg/kg/injection, schedule: Q07DX002 (ip), vehicle: Klucel (hydroxypropylcellulose) (HPC)
[5] = dose: 12.5 mg/kg/injection, schedule: Q07DX002 (ip), vehicle: saline with Tween-80
[6] = dose: 25.0 mg/kg/injection, schedule: Q07DX002 (ip), vehicle: saline with Tween-80
[7] = dose: 50.0 mg/kg/injection, schedule: Q07DX002 (ip), vehicle: saline with Tween-80
[8] = dose: 100.0 mg/kg/injection, schedule: Q07DX002 (ip), vehicle: saline with Tween-80
[9] = dose: 12.5 mg/kg/injection, schedule: Q07DX002 (ip), vehicle: saline
[10] = dose: 25.0 mg/kg/injection, schedule: Q07DX002 (ip), vehicle: saline

For `O=S(CCCl)CCCl`, the T/C (dose: 0.78 mg/kg/injection, schedule: Q07DX003 (ip), vehicle: Klucel (hydroxypropylcellulose) (HPC)) was 57 % of control, the T/C (dose: 1.56 mg/kg/injection, schedule: Q07DX003 (ip), vehicle: Klucel (hydroxypropylcellulose) (HPC)) was 84 % of control and the T/C (dose: 3.12 mg/kg/injection, schedule: Q07DX003 (ip), vehicle: Klucel (hydroxypropylcellulose) (HPC)) was 83 % of control. The T/C (dose: 6.25 mg/kg/injection, schedule: Q07DX003 (ip), vehicle: Klucel (hydroxypropylcellulose) (HPC)) was 87 % of control, the T/C [1] was 150 % of control and the T/C (dose: 12.5 mg/kg/injection, schedule: Q07DX003 (ip), vehicle: Klucel (hydroxypropylcellulose) (HPC)) was 84 % of control. The T/C [2] was 96 % of control, the T/C (dose: 25.0 mg/kg/injection, schedule: Q07DX003 (ip), vehicle: Klucel (hydroxypropylcellulose) (HPC)) was 95 % of control and the T/C [3] was 153 % of control. For the same compound, the T/C [4] was 110 % of control.

With `O=S(=O)(CCl)OCCCl` the T/C [5] was 103 % of control, the T/C [6] was 111 % of control and the T/C [7] was 58 % of control. For the same compound, the T/C [8] was 55 % of control.

`C[C@@H]1C[C@@H]([C@H](O)CC2CC(=O)NC(=O)C2)C(=O)[C@@H](C)C1` was tested, and the T/C [7] was 162 % of control, the T/C [8] was 90 % of control and the T/C (dose: 200.0 mg/kg/injection, schedule: Q07DX002 (ip), vehicle: saline with Tween-80) was 60 % of control.

For `N#Cc1c(N)[nH]c2ccc(Sc3ccccc3)cc12`, the T/C [5] was 78 % of control, the T/C [6] was 97 % of control and the T/C [7] was 63 % of control. The T/C [8] was 73 % of control.

In the case of `CO[C@@]12[C@H](COC(N)=O)C3=C(C(=O)C(C)=C(N)C3=O)N1C[C@@H]1N[C@@H]12`, the T/C (dose: 0.5 mg/kg/injection, schedule: Q07DX002 (ip), vehicle: saline) is reported as 62 % of control and 70 % of control, the T/C (dose: 0.5 mg/kg/injection, schedule: Q07DX002 (ip), vehicle: water) is reported as 90 % of control and the T/C (dose: 1.0 mg/kg/injection, schedule: Q07DX002 (ip), vehicle: clinical formulation) is reported as 85 % of control. For the same compound, the T/C (dose: 1.0 mg/kg/injection, schedule: Q07DX002 (ip), vehicle: saline) was 58 % of control and 61 % of control, the T/C (dose: 1.0 mg/kg/injection, schedule: Q07DX002 (ip), vehicle: water) was 80 % of control and the T/C (dose: 2.0 mg/kg/injection, schedule: Q07DX002 (ip), vehicle: clinical formulation) was 84 % of control. For the same compound, the T/C (dose: 2.0 mg/kg/injection, schedule: Q07DX002 (ip), vehicle: saline) was 35 % of control and 51 % of control, the T/C (dose: 2.0 mg/kg/injection, schedule: Q07DX002 (ip), vehicle: water) was 30 % of control and the T/C (dose: 3.75 mg/kg/injection, schedule: Q07DX002 (oral), vehicle: water) was 112 % of control. For the same compound, the T/C (dose: 4.0 mg/kg/injection, schedule: Q07DX002 (ip), vehicle: clinical formulation) was 20 % of control, the T/C (dose: 4.0 mg/kg/injection, schedule: Q07DX002 (ip), vehicle: saline) was 8 % of control and 22 % of control and the T/C (dose: 4.0 mg/kg/injection, schedule: Q07DX002 (ip), vehicle: water) was 13 % of control. The T/C (dose: 7.5 mg/kg/injection, schedule: Q07DX002 (oral), vehicle: water) was 93 % of control, the T/C (dose: 15.0 mg/kg/injection, schedule: Q07DX002 (oral), vehicle: water) was 21 % of control and the T/C (dose: 30.0 mg/kg/injection, schedule: Q07DX002 (oral), vehicle: water) was 28 % of control.

With `COC(=O)Nc1nc2ccc(C3(c4ccc(F)cc4)OCCO3)cc2[nH]1` the T/C [9] was 111 % of control and 90 % of control and the T/C [10] was 70 % of control and 87 % of control.

In the case of `N#CN=[N+]([O-])c1ccc(C(=O)O)cc1`, the T/C (dose: 3.75 mg/kg/injection, schedule: Q07DX002 (ip), vehicle: Klucel (hydroxypropylcellulose) (HPC)) is reported as 117 % of control and 123 % of control, the T/C (dose: 7.5 mg/kg/injection, schedule: Q07DX002 (ip), vehicle: Klucel (hydroxypropylcellulose) (HPC)) is reported as 124 % of control and the T/C (dose: 15.0 mg/kg/injection, schedule: Q07DX002 (ip), vehicle: Klucel (hydroxypropylcellulose) (HPC)) is reported as 87 % of control. For the same compound, the T/C (dose: 60.0 mg/kg/injection, schedule: Q07DX002 (ip), vehicle: Klucel (hydroxypropylcellulose) (HPC)) was 159 % of control.

With `COc1ccc([I+]c2cccc(Cl)c2)cc1Cl` the T/C (dose: 6.25 mg/kg/injection, schedule: Q07DX003 (ip), vehicle: saline with Tween-80) was 54 % of control, the T/C (dose: 12.5 mg/kg/injection, schedule: Q07DX003 (ip), vehicle: saline with Tween-80) was 78 % of control and the T/C (dose: 25.0 mg/kg/injection, schedule: Q07DX003 (ip), vehicle: saline with Tween-80) was 100 % of control. For the same compound, the T/C (dose: 50.0 mg/kg/injection, schedule: Q07DX003 (ip), vehicle: saline with Tween-80) was 111 % of control, the T/C (dose: 100.0 mg/kg/injection, schedule: Q07DX003 (ip), vehicle: saline with Tween-80) was 105 % of control and the T/C (dose: 200.0 mg/kg/injection, schedule: Q07DX003 (ip), vehicle: saline with Tween-80) was 72 % of control.

In the case of `CNc1nc2c(N)ncnc2n1C1OC(CO)C(O)C1O` (stereo unspecified), the T/C [9] is reported as 103 % of control.

`COC1C(O)CC(OC2CC(Oc3cc4cc5c(c(O)c4c(O)c3C)C(=O)[C@@H](OC3CC(OC4CC(OC6CC(C)(O)C(OC(C)=O)C(C)O6)C(O)C(C)O4)C(O)C(C)O3)[C@H]([C@H](OC)C(=O)[C@@H](O)[C@@H](C)O)C5)OC(C)C2OC(C)=O)OC1C` (stereo partly specified) was tested, and the T/C (dose: 0.04 mg/kg/injection, schedule: Q07DX002 (ip), vehicle: Klucel (hydroxypropylcellulose) (HPC)) was 109 % of control and 105 % of control, the T/C (dose: 0.08 mg/kg/injection, schedule: Q07DX002 (ip), vehicle: Klucel (hydroxypropylcellulose) (HPC)) was 207 % of control and 76 % of control and the T/C (dose: 0.16 mg/kg/injection, schedule: Q07DX002 (ip), vehicle: Klucel (hydroxypropylcellulose) (HPC)) was 71 % of control.

`C=C(C)[C@@H]1CC[C@@H]2C(=CC[C@]3(C)C([C@H](C)CC/C=C(/C)C(=O)O)CC[C@@]23C)[C@@]1(C)CCC(=O)O` (stereo partly specified) was tested, and the T/C (dose: 50.0 mg/kg/injection, schedule: Q07DX002 (ip), vehicle: saline + alcohol) was 90 % of control, the T/C (dose: 100.0 mg/kg/injection, schedule: Q07DX002 (ip), vehicle: saline + alcohol) was 91 % of control and the T/C (dose: 200.0 mg/kg/injection, schedule: Q07DX002 (ip), vehicle: saline + alcohol) was 105 % of control. For the same compound, the T/C (dose: 400.0 mg/kg/injection, schedule: Q07DX002 (ip), vehicle: saline + alcohol) was 45 % of control.

With `CCCCN(CCCC)C(Cl)=Nc1ccccc1` the T/C [1] was 111 % of control and 118 % of control, the T/C [2] was 93 % of control and 94 % of control and the T/C [3] was 68 % of control and 89 % of control.

With `NC(=S)N/N=C/c1ccc(O)cn1` the T/C [10] was 123 % of control, the T/C (dose: 25.0 mg/kg/injection, schedule: Q07DX002 (ip), vehicle: suspension in saline) was 83 % of control and the T/C (dose: 50.0 mg/kg/injection, schedule: Q07DX002 (ip), vehicle: saline) was 67 % of control. For the same compound, the T/C (dose: 50.0 mg/kg/injection, schedule: Q07DX002 (ip), vehicle: suspension in saline) was 72 % of control, the T/C (dose: 100.0 mg/kg/injection, schedule: Q07DX002 (ip), vehicle: saline) was 67 % of control and the T/C (dose: 100.0 mg/kg/injection, schedule: Q07DX002 (ip), vehicle: suspension in saline) was 108 % of control. The T/C (dose: 200.0 mg/kg/injection, schedule: Q07DX002 (ip), vehicle: saline) was 72 % of control, the T/C (dose: 400.0 mg/kg/injection, schedule: Q07DX002 (ip), vehicle: saline) was 71 % of control and the T/C (dose: 400.0 mg/kg/injection, schedule: Q07DX002 (ip), vehicle: suspension in saline) was 105 % of control. For the same compound, the T/C (dose: 800.0 mg/kg/injection, schedule: Q07DX002 (ip), vehicle: saline) was 67 % of control and the T/C (dose: 800.0 mg/kg/injection, schedule: Q07DX002 (ip), vehicle: suspension in saline) was 110 % of control.

`CCN(CC)CCNC(=O)Cc1cccc2c(=O)cc(-c3ccccc3)oc12` was tested, and the T/C [4] was 101 % of control, the T/C (dose: 200.0 mg/kg/injection, schedule: Q07DX002 (ip), vehicle: Klucel (hydroxypropylcellulose) (HPC)) was 96 % of control and the T/C (dose: 400.0 mg/kg/injection, schedule: Q07DX002 (ip), vehicle: Klucel (hydroxypropylcellulose) (HPC)) was 68 % of control.

With `COc1cccc2c1C(=O)c1c(O)c3c(c(O)c1C2=O)C[C@@](O)(C(O)CO)C[C@@H]3OC1CC(N(Cc2ccccc2)Cc2ccccc2)C(O)C(C)O1` (stereo partly specified) the T/C (dose: 12.5 mg/kg/injection, schedule: Q07DX002 (ip), vehicle: water) was 75 % of control, the T/C (dose: 25.0 mg/kg/injection, schedule: Q07DX002 (ip), vehicle: water) was 72 % of control and the T/C (dose: 50.0 mg/kg/injection, schedule: Q07DX002 (ip), vehicle: water) was 36 % of control.
